In BindingDB's records for doi:10.1016/j.bmcl.2009.04.124 (H. Lee Moffitt Cancer Center, 2009):
pIC50: −log10 of the molar value.

Molecular target: E3 ubiquitin-protein ligase Mdm2 (Homo sapiens, UniProt Q00987)
Assay: AlphaScreen Assay
Details: pH 7.4; 24 °C
Procedure: When two proteins interact (one of which is conjugated to the donor bead and the other to the acceptor bead) the beads are brought into close proximity. Excitation of a photosensitizer in the donor bead results in the production of singlet oxygen that diffuses to and reacts with a chemiluminescent molecule in the acceptor bead. […] Nickel acceptor beads and glutathione donor beads were added. Following 1 h incubation at 24 deg C, the mixture was analyzed in a fluorometer at an excitation wavelength of 680 nm. Nutlin-3a obtained from Cayman Chemical was used as a control. The IC50 values reported are from runs repeated four times.

Sequence of E3 ubiquitin-protein ligase Mdm2 (Q00987 whole entry): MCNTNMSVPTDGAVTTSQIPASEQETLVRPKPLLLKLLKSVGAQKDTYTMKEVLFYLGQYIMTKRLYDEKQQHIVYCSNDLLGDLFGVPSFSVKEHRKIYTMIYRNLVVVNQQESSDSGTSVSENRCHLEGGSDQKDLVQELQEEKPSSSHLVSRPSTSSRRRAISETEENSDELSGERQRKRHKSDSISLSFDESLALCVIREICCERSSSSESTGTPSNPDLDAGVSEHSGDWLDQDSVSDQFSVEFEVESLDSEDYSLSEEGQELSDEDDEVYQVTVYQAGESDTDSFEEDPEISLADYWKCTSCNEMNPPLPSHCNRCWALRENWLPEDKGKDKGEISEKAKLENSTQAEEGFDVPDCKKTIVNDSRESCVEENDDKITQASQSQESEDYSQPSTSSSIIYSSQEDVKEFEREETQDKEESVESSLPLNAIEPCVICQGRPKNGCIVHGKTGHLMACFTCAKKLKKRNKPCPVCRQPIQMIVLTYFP

`c1ccc(C(N=Nc2nc3ccccc3s2)c2ccccn2)cc1` (stereo unspecified) [NSC-333003] was tested, and the pIC50 was 4.60.
